# Experimental data taken from patent publication US4950658A, “Method of medical treatment of Alzheimer's disease” (priority 1988, dated 1990).
# Experiments:
# acetylcholine [1] = conditions: acute administration, all brain regions; cited from earlier work
# acetylcholine [2] = conditions: cortex, striatum, hippocampus and midbrain; cited from earlier work
# cholinesterase [3] = conditions: when normal acetylcholine levels are regained (within 24 hours) after acute administration; cited from earlier work
# [4] = with loss of enzymatic inhibitory activity; cited from earlier work
# brain cholinesterase [5] = conditions: cited from earlier work
# Alzheimer patients = conditions: i.v. administration; cited from earlier work
# [6] = Side effects of cholinesterase inhibitors in rats; design: animals with facial clonus / animals with sedation: dose or concentration left out as unconfirmed
# [7] = system: 3H-choline accumulation and K+ evoked acetylcholine release; test: 3H-choline accumulation and K+ evoked acetylcholine release in vitro; conditions: concentration giving 100% inhibition of cholinesterase in vitro; after each of two doses
# plasma cholinesterase = test: Plasma cholinesterase inhibition by naled, DDVP and metrifonate; type: biochemical
# Excerpt: Unlike metrifonate, which acts as a slow release formulation, naled degrades rapidly in vivo to the metabolite DDVP. […] The slightly lower values in inhibition observed for naled than that of DDVP can be attributed to its higher molecular weight. […] All the cholinesterase inhibition activity of naled is a result of the formation of DDVP.
# [8] = Side effects in Alzheimer's disease patients on metrifonate; type: in vivo
# Protocol: (§1) Patients were tested using the Alzheimer's Disease Assessment Scale (ADAS) (Rosen et al 1984), Mini Mental State Examination (Folstein et al 1975), a Clincial Global Assessment Scale (Guy 1973) and a rating scale for side effects. A laboratory battery to assess hematopoietic, hepatic, urinary and cardiac status, physical examination, vital signs and measurement of blood cholinesterase activities were completed. Patients were then given in a single oral dose under open conditions metrifonate 2.5 mg/Kg and 5 mg/Kg on successive weeks and reassessed 1, 4 and 7 days after the 2.5 mg/Kg dose and 4 and 7 days after the 5 mg/Kg dose. Patients were next administered metrifonate one month later after a second baseline assessment (blood cholinesterase have returned to initial values by 1 month) and were given on four successive weeks 7.5 mg/Kg, 7.5 mg/Kg, 15 mg/Kg and 15 mg/Kg and assessed 7 days after each dosing prior to administration of the next dose. At each assessment all the cognitive and medical studies at baseline were repeated.
# (§2) In sum we have successfully administered metrifonate to 15 patients (4-16 weeks of once weekly drug) without the appearance of side effects except for nausea and vomiting in four patients that has not reoccurred following administration of the highest dose as a divided dose over two days. […]
# [9] = in vivo; cited from earlier work
# brain cholinesterase [10] = test: Cholinesterase activity in rat after intramuscular inhibitor; type: in vivo; conditions: for activity of cholinesterase: 80 mg/Kg intramuscular
# acetylcholine [11] = test: Acetylcholine levels in rat brain after one or two consecutive administrations; type: in vivo
# Excerpt: The second administration of the drugs was timed so as to allow acetylcholine levels to return to approximately (+12%) control levels and the concentration of the drug was the highest that would allow 100% survival.
# cholinesterase [12] = test: Cholinesterase activity in rat brain regions after intracerebroventricular metrifonate; type: in vivo; conditions: 2.5 mg intracerebroventricularly, injected side, 30 min
# Protocol: (§3) Levels of acetylcholine increased by 45% at 45 min. then returned to normal by 120 min. When metrifonate (2.5 mg) was given intracerebroventricularly the activity of cholinesterase decreased in the injected side at 30 min. to 20% in hippocampus, 22% in the medulla, 50% in the cerebellum, 58% in the striatum and 72% in the cortex.
# [13] = system: plasma acetycholinesterase; conditions: in vivo; cited from earlier work
# acetylcholine [14] = conditions: 125 mg/kg intraperitoneal, simultaneous with inhibition; cited from earlier work
# acetylcholinesterase = conditions: cited from earlier work
# [15] = system: brain acetylcholinesterase; conditions: 125 mg/kg intraperitoneal, within 15 minutes; cited from earlier work
# [16] = system: cholinesterase and acetylcholinesterase in blood; test: Blood cholinesterase activities in Alzheimer's disease patients on metrifonate; type: in vivo; conditions: 15 patients, 4-16 weeks of once weekly drug
# Protocol: as §1, §2
# [17] = system: Alzheimer's disease patients; test: Open metrifonate study in Alzheimer's disease patients, ADAS; type: in vivo
# Protocol: We have administered metrifonate to 15 Alzheimer's disease patients. Patients were diagnosed using Diagnostic Statistical Manual IIIR criteria. […] Patients with moderately severe Alzheimer's disease were accepted to explore for effects of severity on drug response.
# as §1
# To identify responders we used the criterion of an improvement of 4 points on the ADAS. Among 5 patients who have received all four dosage levels we have identified 5 as responders, among 10 patients who have received both the 2.5 and 5 mg/Kg doses we have identified 5 responders for a total of 10 responders identified. […] The longest term patients (n=5) were on metrifonate for a total of four months.
# In the completed patients the preferred dose, defined as maximum improvement without interfering side effects, was identified. Best doses ranged from 2.5 to 7.5 mg/Kg. Lower doses of about 0.5 mg/Kg were also operable.
# acetylcholine [18] = test: Acetylcholine levels in rat brain regions after intracerebroventricular metrifonate; type: in vivo; conditions: 2.5 mg intracerebroventricularly
# Protocol: as §3
# [19] = physostigmine i.m., tetrahydroaminoacridine 15 mg/Kg
# [20] = tetrahydroaminoacridine 15 mg/Kg
smiles,measurement,setting,value
"COP(=O)(OC)OC=C(Cl)Cl [DDVP, 2,2 dichlorovinyl dimethyl phosphate]",time to regain normal acetylcholine levels,acetylcholine [1],≤ 24 h
same,time to peak accumulation of acetylcholine,acetylcholine [2],≤ 5 min
same,cholinesterase still inhibited,cholinesterase [3],35%
same,inactivation by oxidative metabolism,[4],rapidly inactivated
same,time to become active as inhibitor of brain cholinesterase,brain cholinesterase [5]; in vivo,one
same,inhibition of brain cholinesterase,brain cholinesterase [5]; maximal (up to),up to 96%
CNC(=O)Oc1ccc2c(c1)[C@]1(C)CCN(C)[C@@H]1N2C [physostigmine],studies that have shown improvement in memory,Alzheimer patients,6 out of 9
same,animals with splay of hind limbs,[6]; physostigmine 300 mg/Kg i.m.,25%
same,animals with facial clonus,[6]; physostigmine i.m.,15%
same,animals with sedation,[6]; physostigmine i.m.,10%
same,animals with fasciculations,[6]; [19],60%
same,animals with tremor,[6]; [19],30%
same,3H acetylcholine release,[7],significantly more
Nc1c2c(nc3ccccc13)CCCC2 [tetrahydroaminoacridine],animals with fasciculations,[6]; [19],25%
same,animals with tremor,[6]; [19],25%
same,animals with facial and forelimb clonus,[6]; [20],10%
same,animals with generalized seizures,[6]; [20],4%
same,animals with increased salivation,[6]; [20],60%
same,animals with lacrimation,[6]; [20],40%
same,animals with pronounced splay,[6]; [20],35%
same,interval between generalized seizures,[6]; [20],5 to 10 min
"COP(=O)(OC)OC(Br)C(Cl)(Cl)Br (stereo not drawn) [naled, 1,2-dibromo-2,2-dichlorvoethyl dimethyl phosphate]",plasma cholinesterase inhibition compared with DDVP,plasma cholinesterase,parallel to that by DDVP
same,inherent cholinesterase inhibition activity,plasma cholinesterase; conclusion from comparison with DDVP,without inherent cholinesterase inhibition activity of its own
COP(=O)(OC)C(O)C(Cl)(Cl)Cl (stereo not drawn) [metrifonate],patients with nausea and vomiting,"[8]; 15 patients, 4-16 weeks of once weekly drug",four
same,"adverse, side or toxic effects","[8]; up to 15 mg/Kg body weight/week, except occasional nausea and vomiting",have not occurred
same,absorption in humans,[9],rapidly absorbed
same,tolerance in humans,[9],relatively few side effects
same,seizures,[6]; metrifonate 80 mg/Kg 1M,did not occur
same,survival,[6]; metrifonate 80 mg/Kg 1M,all animals survived
same,time at which symptoms developed after the injection,[6]; metrifonate 80 mg/Kg 1M,20 to 35 min
same,side effects compared with the other two drugs,[6]; metrifonate 80 mg/Kg 1M vs physostigmine and tetrahydroaminoacridine,less frequent and less severe
same,activity of cholinesterase,brain cholinesterase [10]; 30 min,26%
same,activity of cholinesterase,brain cholinesterase [10]; 180 min,50%
same,activity of cholinesterase,brain cholinesterase [10]; 360 min,74%
same,peak cholinesterase inhibition,brain cholinesterase [10]; at the doses used,85%
same,time of peak cholinesterase inhibition,brain cholinesterase [10]; at the doses used,30 min
same,time of return of acetylcholine to normal,acetylcholine [11]; 80 mg/Kg intramuscular,≤ 120 min
same,increase in levels of acetylcholine,"acetylcholine [11]; 80 mg/Kg intramuscular, 45 min",45%
same,time at which acetylcholine returned practically to control levels,acetylcholine [11]; first administration,90 min
same,time at which the peak value of acetylcholine was reached,acetylcholine [11]; first administration,45 min
same,increase in acetylcholine levels after the first administration,"acetylcholine [11]; rat brain, first of two consecutive administrations",45%
same,duration of the acetylcholine increase after the second administration,acetylcholine [11]; second consecutive administration,120 min
same,increase in acetylcholine after the second administration,"acetylcholine [11]; second consecutive administration, highest dose allowing 100% survival",33%
same,"activity of cholinesterase, cerebellum",cholinesterase [12],50%
same,"activity of cholinesterase, cortex",cholinesterase [12],72%
same,"activity of cholinesterase, hippocampus",cholinesterase [12],20%
same,"activity of cholinesterase, medulla",cholinesterase [12],22%
same,"activity of cholinesterase, striatum",cholinesterase [12],58%
same,half life of cholinesterase inhibition,[13],120 to 140 h
same,change in acetylcholine,acetylcholine [14],increase
same,increase necessary to obtain the same amount of plasma cholinesterase inhibition,plasma cholinesterase; relative to naled/DDVP,10 fold
same,activity of the precursor itself against acetylcholinesterase,acetylcholinesterase,not active
same,inhibition of brain acetylcholinesterase,[15],70%
same,inhibition of cholinesterase and acetylcholinesterase in blood,[16],up to 80%
same,effect of the highest dose on cognitive performance,[17]; 15 mg/KG,deterioration in cognitive performance
same,clinical effect of once weekly dosing,"[17]; 0.5 to 15 mg/Kg body weight/week, significant number of Alzheimer's disease patients","improvement in memory, cognition and other behaviors"
same,total of responders identified,[17]; 15 patients,10
same,effect of lower doses,[17]; about 0.5 mg/Kg,operable
same,change on the ADAS in responders,[17]; all responders,≥ 9
same,responders (improvement of 4 points on the ADAS),[17]; among 5 patients who received all four dosage levels,5
same,responders (improvement of 4 points on the ADAS),[17]; among 10 patients who received both the 2.5 and 5 mg/Kg doses,5
same,"maximal level of acetylcholine, hippocampus and cortex",acetylcholine [18]; 45 min,160 % of baseline
same,"peak level of acetylcholine, striatum",acetylcholine [18]; 60 min,155 % of baseline
